Results on three molecules are retold here after US8158621B2, “Methods of treating or preventing autoimmune diseases with 2,4-pyrimidinediamine compounds” (Rigel Pharmaceuticals, Inc., priority 2002, dated 2012).

Structures are written as SMILES. “And” between values parts separate entries of the source, which are not always exact repeats. Equal values may be shown once. Marks after values point to notes of the source that are not given here.

A short description of data set [1]: 14-day repeat-dose intranasal toxicity study in Cynomolgus monkeys. It counts as in vivo. The following applies: 14-day intranasal. On the procedure: A 14-day repeat-dose intranasal toxicity study in Cynomolgus monkeys was performed at doses of 2.1, 4.5 or 6.3 mg/kg/day. In life parameters included: clinical observations, body weights, food consumption, ophthalmology, blood pressure, electrocardiography, hematology, clinical chemistry, urinalysis, immunotoxicological assessment, gross necropsy, organ weights, toxicokinetic assessments and histopathology (including the nasal cavity).

Data set [2] relates to CHMC cells. In words: ionomycin-induced Ca2+ flux in CHMC cells. The following applies: 10 μM. It counts as cell-based, human. In general terms: Calcium assays in cells follow changes in intracellular calcium, usually with a dye or a luminescent sensor.
The test system of data set [3] is bone marrow derived mast cells (BMMC). Description: BMMC high cell density IgE activation: histamine. Type of data set: cell-based, mouse. The following applies: High Density; read-out: BMMC anti-IgE histamine. As for the experimental part:
After sensitizing, cells are counted, pelleted (1000 rpm, 5-10 minutes), and resuspended at 1-3×10^6 cells/ml in MT buffer. Add 100 ul of cell suspension to each well and 100 ul of compound dilutions. The final vehicle concentration is 0.5% DMSO. Incubate at 37° C. (5% CO2) for 1 hour. After 1 hour of compound treatment, stimulate cells with 6× stimulus (60 ng/ml DNP-BSA). Mix wells with the cells and allow plates to incubate at 37° C. (5% CO2) for one hour. After 1 hour incubation, pellet cells (10 minutes, 1000 RPM) and collect 200 ul per well of the supernatant, being careful not to disturb pellet, and transfer to a clean tube or 96-well plate. Place the supernatant plate on ice. During the 4-5 hour step (see next) perform the hexosiminidase assay. Resuspend cell pellet in 240 ul WEI-conditioned media containing 0.5% DMSO and corresponding concentration of compound. Incubate BMMC cells for 4-5 hours at 37° C. (5% CO2). After incubation, pellet cells (1000 RPM, 10 minutes) and collect 225 ul per well and place in −80° C. until ready to perform ELISAS. ELISAS are performed on appropriately diluted samples (determined empirically for each donor cell population so that the sample measurement falls within the standard curve) following the supplier's instructions.

Data set [4] can be described thus: 14-day repeat-dose intranasal toxicity study in New Zealand White rabbits. Type of data set: in vivo. The following applies: 14-day intranasal. As for the experimental part: A 14-day repeat-dose intranasal toxicity study in New Zealand White rabbits was performed at doses of 1.7, 3.4 or 5.0 mg/kg/day. In life parameters included: clinical observations, body weights, food consumption, ophthalmology, hematology, clinical chemistry, gross necropsy, organ weights, toxicokinetic assessments and histopathology (including the nasal cavity).

In data set [5] the test system is basophil cells (human peripheral blood). Description: Basophil dustmite activation: histamine release assay. It counts as cell-based. The following applies: basophils, dust mite activation. On the procedure: The basophil activation assay was carried out using whole human peripheral blood from donors allergic to dust mites with the majority of the red blood cells removed by dextran sedimentation. Human peripheral blood was mixed 1:1 with 3% dextran T500 and RBCs were allowed to settle for 20-25min. The upper fraction was diluted with 3 volumes of D-PBS and cells were spun down for 10 min at 1500 rpm, RT. Supernatant was aspirated and cells were washed in an equal volume MT-buffer. Finally, cells were resuspended in MT-buffer containing 0.5% DMSO in the original blood volume. 80 uL cells were mixed with 20 uL compound in the presence of 0.5% DMSO, in triplicate, in a V-bottom 96-well tissue culture plate. A dose range of 8 compound concentrations was tested resulting in a 10-point dose response curve including maximum (stimulated) and minimum (unstimulated) response. […] The cells were stimulated for 30 minutes at 37° C., 5% CO2. The plate was spun for 10 min at 1500 rpm at room temperature and 80 uL the supernatant was harvested for histamine content analysis using the histamine ELISA kit supplied by Immunotech. The ELISA was performed according to supplier's instructions.

Data set [6] is described as follows: Mouse experimental autoimmune encephalomyelitis (EAE). Type of data set: in vivo. The following applies: for mice relapsed: from day of immunization. On the procedure:
In the SJL murine model of EAE, each mouse is sensitized with PLP/CFA. […] In a treatment protocol, at onset of disease, animals are separated to achieve groups with a similar mean clinical score at onset and administered vehicle or various dose frequencies of test articles via oral gavage. In both protocols, clinical scores are monitored daily, and body weights are measured twice weekly.

A short description of data set [7]: Mouse collagen antibody-induced arthritis (CAIA). Type of data set: in vivo, Balb/c mice. On the procedure:
Arthrogen-CIA® Arthritis-inducing Monoclonal Antibody Cocktail (Chemicon International Inc.) is administered intravenously to Balb/c mice (2mg/mouse) on Day 0. Forty-eight hours later, 100 μl of LPS (25 μg) is injected intraperitoneally. On Day 4, toes may appear swollen. By Day 5, one or two paws (particular the hind legs) begin to appear red and swollen. On Day 6, and thereafter, red and swollen paws will remain for at least 1-2 weeks. During the study, the clinical signs of inflammation are scored to evaluate the intensity of edema in the paws. The severity of arthritis is recorded as the sum score of both hind paws for each animal (possible maximum score of 8). The degree of inflammation with involved paws is evaluated by measurement of diameter of the paws. Body weight changes are monitored.
Animals are treated at the time of induction of arthritis, beginning on Day 0. Test compounds and control compounds are administered once a day (q.d.) or twice a day (b.i.d.), via per os (PO), depending on previously established PK profiles.
At the end of the study (1-2 weeks after induction of arthritis), mice are euthanized and the paws are transected at the distal tibia using a guillotine and weighed. The mean±standard error of the mean (SEM) for each group is determined each day from individual animal clinical scores, and hind paw weights for each experimental group are calculated and recorded at study termination. Histopathological evaluation of paws are obtained.

The format of data set [8] is in vivo. The following applies: rat, 32 days.
The nature of data set [9]: Oral bioavailability / pharmacokinetics in rats. The following applies: rat, in vivo. As for the experimental part: Over 50 2,4-pyrimidinediamine compounds of the invention were tested for oral bioavailability. For the study, compounds were dissolved in various vehicles (e.g. PEG 400 solution and CMC suspension) for intravenous and oral dosing in the rats. Following administration of the drug, plasma samples were obtained and extracted. The plasma concentrations of the compounds were determined by high performance liquid chromatography/tandem mass spectrometry (LC/MS/MS) methods. Pharmacokinetic analyses were performed based on the plasma concentration data. The pharmacokinetic parameters of interest include Clearance (CL), Volume of distribution at steady-state (Vss), terminal half-life (t1/2), and oral bioavailability (% F).

A short description of data set [10]: in vitro chromosomal aberration assay.
The mark [11] stands for this setting: 100 mg/kg 1x/day starting on day of immunization.
The mark [12] stands for this setting: 100 mg/kg 2x/day starting on day of immunization.
Where [13] appears, read: 200 mg/kg 2x/day starting on day of onset.

Regarding `Oc1cccc(Nc2ncc(F)c(Nc3cccc(O)c3)n2)c1` [Compound R921218], the entries for the “NOAEL (no observed adverse effect level)” value in [1] and in data set [4] were 6.3 mg/kg/day and 5.0 mg/kg/day, respectively. For the same molecule, in data set [2], the “ionomycin-induced Ca2+ flux” value was “no effect”. The IC50 stood at 203 nM in data set [3] and 302 nM in data set [5].

`Nc1cccc(Nc2ncc(F)c(Nc3cccc(N)c3)n2)c1` [Compound R921302]: in [6] (setting [11]), the Incidence is recorded as 10/10; the Mortality was 0/10; the Onset came to 12.3 ± 0.7; the “Peak (mean clinical score)” value was 4.3+1.3 and 4.3 ± 1.3. In data set [6] (setting [12]), the Incidence was 10/10; the Mortality is given as 3/10^a; the Onset was 13.0 ± 1.2^b; the “Peak (mean clinical score)” value was 4.3+1.4 and 4.3 ± 1.4. The mice relapsed entry in data set [6] (100 mg/kg twice daily group) is “None”. For the same molecule, in data set [6] (100 mg/kg/day group), the mice relapsed is 3/8. In addition, in [6] (setting [13]), the Incidence is recorded as 12/12, the “Mean score at treatment” value is reported as 3.4 ± 1.6, the Mortality is reported as 1/12 and the Peak is listed as 4.3 ± 0.7. In addition, in data set [6] (setting [13]), the Relapses was 2/12. In addition, the “Group Average Histopathological Score (0-15), average total score ± SD” value in data set [7] (100 mg/kg, twice daily) came out at 5.1 ± 1.9. Moreover, in [7] (end of study), the “reduction of paw weight compared with vehicle control group” value is 99.9%. Besides, the “histopathological evaluation of the resected paws” value in [7] (mouse, in vivo) is reported as “lesions of lesser severity”. Also, the “tolerability, oral doses of 50, 150 and 300 mg/kg” value in [8] is given as “well tolerated”. Besides, the “metabolic stability in pharmacokinetics study” value in data set [9] is “most metabolically stable compound”.

Regarding `CNC(=O)COc1cccc(Nc2ncc(F)c(Nc3ccc4c(c3)NCCO4)n2)c1` [Compound R921219], in data set [10], the “clastogenic potential, in vitro chromosomal aberration assay” value is on record as “not found to possess elastogenic potential”.
